Measured values as given in PMC7803973, “Structural basis of malaria parasite phenylalanine tRNA-synthetase inhibition by bicyclic azetidines” (Nature Communications, 2021).

Molecular target: T1, PfcFRS (Plasmodium falciparum, UniProt Q8I246)
T1 sequence (Q8I246 1-575): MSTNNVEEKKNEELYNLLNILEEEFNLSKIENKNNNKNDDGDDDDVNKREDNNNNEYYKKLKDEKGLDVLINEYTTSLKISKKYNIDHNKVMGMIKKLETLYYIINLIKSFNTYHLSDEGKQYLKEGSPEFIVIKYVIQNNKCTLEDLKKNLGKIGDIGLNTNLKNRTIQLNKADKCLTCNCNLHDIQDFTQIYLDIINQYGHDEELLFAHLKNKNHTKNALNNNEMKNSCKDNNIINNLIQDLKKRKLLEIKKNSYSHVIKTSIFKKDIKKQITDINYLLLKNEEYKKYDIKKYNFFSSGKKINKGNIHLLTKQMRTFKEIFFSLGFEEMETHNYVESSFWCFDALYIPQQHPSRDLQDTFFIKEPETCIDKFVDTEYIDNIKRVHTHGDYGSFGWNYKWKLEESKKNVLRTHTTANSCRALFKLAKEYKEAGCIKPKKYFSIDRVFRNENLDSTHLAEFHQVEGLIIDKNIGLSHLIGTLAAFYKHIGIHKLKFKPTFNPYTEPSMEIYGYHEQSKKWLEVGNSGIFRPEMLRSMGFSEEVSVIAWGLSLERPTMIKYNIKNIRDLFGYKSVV
T1 sequence (Q8IIW2 1-623 partner): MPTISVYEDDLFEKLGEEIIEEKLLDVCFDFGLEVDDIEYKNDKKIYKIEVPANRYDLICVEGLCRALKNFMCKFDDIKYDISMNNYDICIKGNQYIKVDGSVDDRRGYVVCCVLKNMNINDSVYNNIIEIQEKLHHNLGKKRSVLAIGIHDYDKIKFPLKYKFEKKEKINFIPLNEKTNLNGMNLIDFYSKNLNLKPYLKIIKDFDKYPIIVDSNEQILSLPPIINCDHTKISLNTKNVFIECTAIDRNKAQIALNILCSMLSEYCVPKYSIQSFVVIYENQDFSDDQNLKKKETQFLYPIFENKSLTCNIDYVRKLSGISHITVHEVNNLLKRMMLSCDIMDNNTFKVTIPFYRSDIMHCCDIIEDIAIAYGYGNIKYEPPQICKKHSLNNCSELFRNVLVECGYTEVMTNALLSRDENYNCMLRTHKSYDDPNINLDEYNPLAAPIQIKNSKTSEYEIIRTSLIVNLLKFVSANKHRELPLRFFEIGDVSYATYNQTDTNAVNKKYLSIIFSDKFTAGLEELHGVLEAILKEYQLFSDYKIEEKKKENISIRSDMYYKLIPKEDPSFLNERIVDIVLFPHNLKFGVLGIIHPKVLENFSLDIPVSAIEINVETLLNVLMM
Assay: Malachite green aminoacylation enzyme inhibition assay
Format: biochemical
Procedure: These were done using malachite green assay as per earlier published reports[1],[6]. Briefly, the reaction was performed for 100 µM ATP, 50 µM L-phenylalanine and 100 nM recombinant PheRS enzymes (Pf, Pv, Hs, Pf mutant (L550V)) in a buffer containing 30 mM HEPES (pH 7.5), 150 mM, NaCl, 30 mM KCl, 50 mM, MgCl2, 1 mM DTT, and 2 U/ml E. coli inorganic pyrophosphatase (NEB) at 37 °C. Enzymatic reactions (50 μl total volume) were performed in clear, flat-bottomed, 96-well plates (Costar 96-well standard microplates). The reaction mixture was incubated for 2 h at 37 °C. The reaction was stopped by adding 12.5 μl of malachite green solution to the reaction mixture and levels of inorganic phosphate (Pi) were detected after incubation of 5 min at room temperature. Absorbance was the measured at 620 nm using a Spectramax M2 (Molecular Devices). Reactions without FRS enzyme were performed as background controls, values of which were subtracted from the reactions with enzyme. BRD1389 was added to our aminoacylation assay reaction buffer in varying concentrations ranging from 0.1 nM to 10,000 nM. The IC50 value for the data is shown for three replicates as the mean ± SD.

With `COC[C@@H]1[C@H](c2ccc(C#Cc3ccccc3)cc2)[C@@H]2CN(C(=O)Nc3ccc(OC4CC4)cc3)C[C@@H](O)[C@@H](O)CN12` [BRD1389] the remaining activity at 1 pM (2 h, read-out: % Enzyme Activity) was 100%, the remaining activity at 0.0001 µM (2 h, PfcFRS, BRD1389 0.0001 uM) was 98.4% and the remaining activity at 0.001 µM (2 h, PfcFRS, BRD1389 0.001 uM) was 85.2%. It also gave a remaining activity at 0.01 µM (2 h, PfcFRS, BRD1389 0.01 uM) of 46.7%, a remaining activity at 0.1 µM (2 h, PfcFRS, BRD1389 0.1 uM) of 9.72% and a remaining activity at 1 µM (2 h, PfcFRS, BRD1389 1 uM) of 4.61%. The remaining activity at 10 µM (2 h, PfcFRS, BRD1389 10 uM) was 1.17%, the remaining activity at 100 µM (2 h, PfcFRS, BRD1389 100 uM) was 0% and the IC50 (Pf cFRS aminoacylation activity) was 12 ± 0.8 nM.
